Assay results published in US5663181A, “Naphthyridine derivatives, their methods of preparation and pharmaceutical compositions in which they are present, useful especially as antiproliferative drugs” (Laboratoires UPSA, priority 1993, dated 1997).

Tested on: balb c 3T3 fibroblasts
Test: Inhibition of PDGF-stimulated balb c 3T3 fibroblast proliferation (3H-thymidine incorporation)
Format: cell-based
Conditions: Mus musculus, BALB/c3T3; ^3 H-thymidine incorporation stimulated by PDGF in balb c 3T3 fibroblasts
Description: Measurement of inhibition of the balb c 3T3 fibroblast proliferation induced by a growth factor […]
Inhibition of the cell proliferation induced by a growth factor (for example PDGF) is evaluated by measuring the ^3 H-thymidine incorporation into balb c 3T3 fibroblasts.
The balb c 3T3 fibroblasts are cultivated at 37° C. with 5% of CO2 up to the point of subconfluence and are then placed for 24 hours under rest conditions in a serum-impoverished medium. They are subsequently pretreated for one hour with the test molecule and then stimulated for 24 hours with a growth factor (for example PDGF). ^3 H-Thymidine is incorporated over the last 2 hours. All these steps are performed at 37° C. with 5% of CO2.
The reaction is terminated by sucking off the reaction medium, detaching the cells and then filtering the lyzed cells through glass fiber filters.
The results are expressed as the percentage inhibition of the stimulation of ^3 H-thymidine incorporation due to the action of the growth factor.

Row | SMILES | IC50
1 | N#CC(=Cc1cc2cccnc2n(-c2cc(Cl)cc(Cl)c2)c1=O)c1cccnc1 [Example 78, 3-[1-(3,5-dichlorophenyl)-1,2-dihydro-2-oxo-1,8-naphthyridin-3-yl]-2-(3-pyridyl)prop-2-enenitrile] | 300 nM
2 | N#CC(=Cc1cc2cccnc2n(-c2cc(Cl)cc(Cl)c2)c1=O)c1ccncc1 [Example 81, 3-[1-(3,5-dichlorophenyl)-1,2-dihydro-2-oxo-1,8-naphthyridin-3-yl]-2-(4-pyridyl)prop-2-enenitrile] | 200 nM
